What follows are cell lines tested with CC(C)N(CCCNC(=O)Nc1ccc(C(C)(C)C)cc1)C[C@H]1O[C@@H](n2ccc3c(N)ncnc32)[C@H](O)[C@@H]1O + CS(=O)(=O)N1CCN(Cc2cc3nc(-c4cccc5[nH]ncc45)nc(N4CCOCC4)c3s2)CC1 [Pictilisib] (partner 1 µM) (assay: relative viability (nuclei count vs DMSO), 5 days (fraction); higher = more cells survive). Conditions: first compound 0.08 µM.
How it was run: (§1)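 Five library-drug doses in √10 steps were combined with a fixed anchor-drug dose, or a single drug was given alone, by pin tool to lung cancer cell lines in 1536-well plates the day after seeding. Nuclei were stained and counted after 5 days. Relative viability is the nuclei count in treated wells over that in vehicle wells, taken as the median of duplicate plates.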

Point of comparison: NCI-H661, relative viability 0.542. Against it:
- NCI-H1299 — higher, 0.944
- CAL-12T — lower, 0.316
- NCI-H1563 — higher, 0.678
- SW 1573 — higher, 0.656
- SK-LU-1 — higher, 0.593

Same assay, conditions: first compound 0.253 µM

Point of comparison: NCI-H1703, relative viability 0.247. Against it:
- PC-14 — higher, 0.528
- NCI-H1650 — higher, 0.52
- EBC-1 — higher, 0.386
- NCI-H2009 — higher, 0.663
- NCI-H1993 — higher, 0.716
- NCI-H520 — the same, 0.247
- PC-3 [JPC-3] — higher, 0.677
- LCLC-103H — higher, 0.522
- EMC-BAC-2 — higher, 0.49
- NCI-H2087 — higher, 0.778
- Calu-6 — higher, 0.91
- HCC-366 — lower, 0.157
- NCI-H1666 — higher, 0.405
- NCI-H650 — higher, 0.907
- LK-2 — higher, 0.532
- NCI-H2126 — higher, 0.476
- SK-MES-1 — higher, 0.363
- H3255 — higher, 0.414
- COR-L23 — higher, 0.606
- COR-L 105 — higher, 0.301
- IA-LM — higher, 0.347
- LOU-NH91 — higher, 0.527
- ChaGo-K-1 — higher, 0.726
- NCI-H2170 — higher, 0.262
- NCI-H3122 — higher, 0.576
- HOP-62 — higher, 0.413
- HCC-44 — higher, 0.644
- A549 — higher, 0.501
- NCI-H2023 — lower, 0.215
- NCI-H1299 — higher, 0.834
- NCI-H661 — higher, 0.281
- CAL-12T — higher, 0.388
- NCI-H1563 — higher, 0.607
- SW 1573 — higher, 0.438
- SK-LU-1 — higher, 0.506

Same assay, conditions: first compound 0.8 µM

Point of comparison: NCI-H2009, relative viability 0.826. Against it:
- PC-14 — lower, 0.795
- EBC-1 — lower, 0.338
- NCI-H1703 — lower, 0.257
- NCI-H1993 — higher, 0.868
- NCI-H520 — lower, 0.215
- PC-3 [JPC-3] — lower, 0.658
- LCLC-103H — lower, 0.703
- NCI-H647 — lower, 0.403
- NCI-H2228 — lower, 0.462
- EMC-BAC-2 — lower, 0.581
- NCI-H2087 — lower, 0.745
- Calu-6 — higher, 0.971
- HCC-366 — lower, 0.117
- NCI-H1666 — lower, 0.39
- NCI-H650 — higher, 0.887
- LK-2 — lower, 0.651
- NCI-H2126 — lower, 0.415
- SK-MES-1 — lower, 0.304
- H3255 — lower, 0.442
- COR-L23 — lower, 0.662
- COR-L 105 — lower, 0.408
- IA-LM — lower, 0.447
- ChaGo-K-1 — lower, 0.658
- NCI-H2170 — lower, 0.336
- NCI-H3122 — lower, 0.634
- HOP-62 — lower, 0.655
- HCC-44 — lower, 0.488
- A549 — lower, 0.53
- NCI-H2023 — lower, 0.219
- NCI-H1299 — higher, 0.912
- NCI-H661 — lower, 0.428
- CAL-12T — lower, 0.398
- NCI-H1563 — lower, 0.616
- SW 1573 — lower, 0.546
- SK-LU-1 — lower, 0.621

Same assay, conditions: first compound 2.53 µM

Point of comparison: NCI-H650, relative viability 0.867. Against it:
- PC-14 — higher, 0.882
- NCI-H1650 — lower, 0.56
- EBC-1 — lower, 0.399
- NCI-H1703 — lower, 0.244
- NCI-H2009 — higher, 0.976
- NCI-H1993 — lower, 0.781
- NCI-H520 — lower, 0.282
- PC-3 [JPC-3] — lower, 0.656
- LCLC-103H — lower, 0.551
- NCI-H647 — lower, 0.45
- NCI-H2228 — lower, 0.478
- EMC-BAC-2 — lower, 0.522
- NCI-H2087 — higher, 0.963
- Calu-6 — higher, 0.922
- HCC-366 — lower, 0.181
- NCI-H1666 — lower, 0.405
- LK-2 — lower, 0.644
- NCI-H2126 — lower, 0.529
- SK-MES-1 — lower, 0.33
- H3255 — lower, 0.557
- COR-L23 — lower, 0.778
- COR-L 105 — lower, 0.369
- IA-LM — lower, 0.398
- LOU-NH91 — lower, 0.556
- ChaGo-K-1 — lower, 0.632
- NCI-H2170 — lower, 0.372
- NCI-H3122 — lower, 0.493
- HOP-62 — lower, 0.776
- HCC-44 — lower, 0.734
- A549 — lower, 0.52
- NCI-H2023 — lower, 0.333
- NCI-H1299 — lower, 0.76
- NCI-H661 — lower, 0.376
- CAL-12T — lower, 0.459
- NCI-H1563 — lower, 0.679
- SW 1573 — lower, 0.55
- SK-LU-1 — lower, 0.662

Same assay, conditions: first compound 8 µM

Point of comparison: SK-LU-1, relative viability 0.538. Against it:
- PC-14 — higher, 0.57
- NCI-H1650 — higher, 0.624
- EBC-1 — lower, 0.347
- NCI-H1703 — lower, 0.24
- NCI-H2009 — higher, 0.854
- NCI-H1993 — higher, 0.773
- NCI-H520 — lower, 0.301
- PC-3 [JPC-3] — higher, 0.727
- LCLC-103H — higher, 0.716
- NCI-H647 — lower, 0.372
- NCI-H2228 — lower, 0.28
- EMC-BAC-2 — lower, 0.502
- NCI-H2087 — higher, 0.653
- Calu-6 — higher, 0.882
- HCC-366 — lower, 0.194
- NCI-H1666 — lower, 0.355
- NCI-H650 — higher, 0.824
- LK-2 — higher, 0.609
- NCI-H2126 — lower, 0.48
- SK-MES-1 — lower, 0.342
- H3255 — lower, 0.461
- COR-L23 — higher, 0.735
- COR-L 105 — lower, 0.404
- IA-LM — lower, 0.378
- LOU-NH91 — higher, 0.545
- ChaGo-K-1 — higher, 0.912
- NCI-H2170 — lower, 0.323
- NCI-H3122 — higher, 0.553
- HOP-62 — lower, 0.342
- HCC-44 — higher, 0.578
- A549 — lower, 0.469
- NCI-H2023 — lower, 0.217
- NCI-H1299 — higher, 0.726
- NCI-H661 — lower, 0.422
- CAL-12T — lower, 0.47
- NCI-H1563 — higher, 0.636
- SW 1573 — higher, 0.585

What follows are cell lines tested with CC(C)=CC[C@@H](O)C1=CC(=O)c2c(O)ccc(O)c2C1=O [Shikonin] + O=C(c1cc(Cc2n[nH]c(=O)c3ccccc23)ccc1F)N1CCN(C(=O)C2CC2)CC1 [Olaparib] (partner 8 µM) in the same assay as above. Conditions: first compound 0.01 µM.
How it was run: as §1

Point of comparison: EBC-1, relative viability 0.764. Against it:
- NCI-H2342 — lower, 0.43
- PC-14 — lower, 0.282
- NCI-H1650 — higher, 0.877
